In publication PMC9098913, “In vitro reconstitution of Escherichia coli divisome activation” (Nature Communications, 2022):
Where two headings read alike, the source gives them in different places.

Legend:
[1] = Membrane binding of FtsA by QCM-D; settings: for amount of membrane-bound protein saturated at / Kd: QCM-D; for Kd: Hill fit, 5th harmonic, DOPC:DOPG 67:33 mol%, pH 7.4, 150 mM KCl, 5 mM MgCl2, 2 mM ATP, 2 mM GTP, 25 °C, n = 2, upper estimate
Description: To quantify the intrinsic membrane-affinity of the two versions of FtsA, we used Quartz Crystal Microbalance with Dissipation (QCM-D) and measured the hydrated mass of adsorbed protein on a membrane surface.
QCM-D experiments were performed with the QSense Analyzer from Biolin Scientific, equipped with silica-coated sensor (QSX 303). The sensors were cleaned for 10 s in a Zepto plasma cleaner, mounted in the QCM-D chambers and the acquisition of the experiment was first performed in the reaction buffer (50 mM Tris-HCl [pH 7.4], 150 mM KCl and 5 mM MgCl2). The supported lipid membrane was formed by rupturing 0.5 mM small unilamellar vesicles (SUVs) in the presence of MgCl2. The lipids used were 1,2-dioleoyl-sn-glycero-3-phosphocholine (DOPC) and 1,2-dioleoyl-sn-glycero-3-phospho-(1′-rac-glycerol) (DOPG) at a ratio of 67:33 mol%. After bilayer formations, the reaction buffer supplemented with 2 mM ATP, 2 mM GTP and 1 mM DTT was injected and the signal was recorded until a stable equilibrium was reached. Subsequently, increasing concentrations of FtsA were injected in the QCM-D chamber and changes in frequency and dissipation were monitored in real-time. The flow rate used in all experiments was 25 µl min^−1, and the temperature was set to 25 °C. To estimate the membrane-binding affinity, we extracted the frequency changes of the 5th acoustic harmonic for different FtsA concentrations and fitted a Hill equation y=S+(E−S)⋅(x^n/k^n+x^n) , where S is the starting point, E the end point, n is the Hill coefficient and k the dissociation constant. The measured binding affinity is an upper estimate, because QCM-D accounts not only on the dry molecular mass, but also on the hydration shell of the molecular assembly.

FtsZ [2] = settings: 1.25 µM FtsZ, FtsA 0.1–0.8 µM
Description: Additionally, the reaction chamber contained 4 mM ATP and 4 mM GTP, as well as a scavenging system to minimize photobleaching effects: 30 mM d-glucose, 0.050 mg ml^−1 Glucose Oxidase, 0.016 mg ml^−1 Catalase, 1 mM DTT and 1 mM Trolox. Prior addition of all components a corresponding buffer volume was removed from the chamber to obtain a total reaction volume of 100 µl. The dynamic protein pattern was monitored by time-lapse TIRF microscopy at one frame per 2 s and 50 ms exposure time.
Treadmilling dynamics, were quantified using an automated image analysis protocol previously developed by our group. To visualize colocalization of the co-treadmilling FtsZ & FtsA filaments, we used dual-colour videos obtained at an acquisition rate of one frame per 2 s. The two channels were aligned using FIJI’s 3TP align plugin. Both channels were then subjected to the image subtraction protocol and colocalization was measured as described above.

FtsZ [3] = settings: for Pearson correlation coefficient (PCC) FtsA/FtsZ: 1.25 µM FtsZ
Description: Time-lapse videos were first intensity-corrected and contrast-enhanced to avoid bleaching effects and simplify subsequent analysis. To remove contributions of X–Y drift, the videos were processed with the Linear Stack Alignment with SIFT plugin. […] Subsequently, regions of interest (ROIs) in the center of the stacks were chosen for colocalization analysis. The Pearson’s correlation coefficient (PCC) was quantified with the Image CorrelationJ 1o plugin. To extract information about the relative ratio of FtsZ/FtsA molecules (slope of linear regression), we also used the Image CorrelationJ 1o plugin. As an output, the plugin provides a scatterplot of FtsZ vs FtsA intensities, to which we fitted a linear slope y=k⋅x+d , where k is the slope and d the offset. The slope was used as an estimate for the ratio of FtsA molecules below FtsZ filaments[42].

[4] = 0.1µM FtsA, replicate 1 (row printed 'goo')
[5] = 0.2µM FtsA, replicate 1 (row printed 'goo')
[6] = 0.4 µM FtsA, mean ± s.d., WT vs R286W p-value 1.28 × 10^−5
[7] = 0.4µM FtsA, replicate 1 (row printed 'goo')
[8] = 0.8µM FtsA, replicate 1 (row printed 'goo')

Molecule	Mean of QCM-D experiments ([1]; 0.01 µM)	Mean of QCM-D experiments ([1]; 0.05 µM)	Mean of QCM-D experiments ([1]; 0.10 µM)	amount of membrane-bound protein saturated at [1] [µM]	Kd [1] [µM]	effect on FtsZ treadmilling velocity (FtsZ [2])	Pearson correlation coefficient (PCC) FtsA/FtsZ (FtsZ [3]; 0.1 µM FtsA, steady state about 15 min, mean ± s.d.)	PCC FtsZ/FtsA (FtsZ [3]; 0.1µM FtsA, Exp. 2)	PCC FtsZ/FtsA (FtsZ [3]; [4])	Pearson correlation coefficient (PCC) FtsA/FtsZ (FtsZ [3]; 0.2 µM FtsA, steady state about 15 min, mean ± s.d.)	PCC FtsZ/FtsA (FtsZ [3]; 0.2µM FtsA, Exp. 2)	PCC FtsZ/FtsA (FtsZ [3]; [5])	Pearson correlation coefficient (PCC) FtsA/FtsZ (FtsZ [3]; [6])	PCC FtsZ/FtsA (FtsZ [3]; 0.4µM FtsA, Exp. 2)	PCC FtsZ/FtsA (FtsZ [3]; [7])	Pearson correlation coefficient (PCC) FtsA/FtsZ (FtsZ [3]; 0.8 µM FtsA, mean ± s.d.)	PCC FtsZ/FtsA (FtsZ [3]; 0.8µM FtsA, Exp. 2)	PCC FtsZ/FtsA (FtsZ [3]; [8])	Pearson correlation coefficient (PCC) FtsA/FtsZ (FtsZ [3]; all concentrations tested (0.1–0.8 µM))
FtsA WT: wild-type E. coli actin-homologue FtsA, membrane anchor of FtsZ	1.23	3.38	7.01	0.8	0.21 ± 0.01	could not observe a significant effect	0.78 ± 0.04	0.79	0.77	0.69 ± 0.06	0.62	0.61	0.32 ± 0.12	0.40	0.43	0.27 ± 0.09	0.29	0.38	–
FtsA R286W (protein, Cy3 or Cy5 at the N-terminus in the labelled form (labelled CLEPTGG peptide conjugated to the 5xGly tag by sortagging); unlabelled protein also used; left off: TwinStrep-SUMO, N-terminal, cleaved | 5x) MIKATDRKLVVGLEIGTAKVAALVGEVLPDGMVNIIGVGSCPSRGMDKGGVNDLESVVKCVQRAIDQAELMADCQISSVYLALSGKHISCQNEIGMVPISEEEVTQEDVENVVHTAKSVRVRDEHRVLHVIPQEYAIDYQEGIKNPVGLSGVRMQAKVHLITCHNDMAKNIVKAVERCGLKVDQLIFAGLASSYSVLTEDERELGVCVVDIGGGTMDIAVYTGGALRHTKVIPYAGNVVTSDIAYAFGTPPSDAEAIKVRHGCALGSIVGKDESVEVPSVGGRPPWSLQRQTLAEVIEPRYTELLNLVNEEILQLQEKLRQQGVKHHLAAGIVLTGGAAQIEGLAACAQRVFHTQVRIGAPLNITGLTDYAQEPYYSTAVGLLHYGKESHLNGEAEVEKRVTASVGSWIKRLNSWLRKEF	0.81	1.79	3.36	0.8	0.32 ± 0.05	could not detect a difference	–	0.41	0.73	–	0.77	0.89	0.84 ± 0.05	0.83	0.89	–	0.83	0.88	around 0.8
